Series [1] in a line: Determination of drug loading by HPLC (drug degradation during SLS printing). It counts as physicochemical. Conditions: SLS 3D printing, 445 nm 2.3 W laser. The method, then:
Tablets weighing approx. 300 mg, prepared as in example 1, were placed in a volumetric flask with deionized water (1 L) under magnetic stirring until complete dissolution.
Samples of the solutions were then filtered through 0.45 μm filters (Millipore Ltd, Ireland) and the concentration of drug determined with high performance liquid chromatograph (HPLC). We used a Hewlett Packard 1050 Series HPLC system, Agilent Technologies, UK. The validated high performance liquid chromatographic assay entailed injecting 20 μL samples for analysis using a mobile phase, consisting of gradient system of (A) water adjusted to pH 2 with orthophosphoric acid and (B) acetonitrile, through a Luna 5 μm C18 column, 150×4.6 mm (Phenomenex, UK) maintained at 40° C. The mobile phase was pumped at a flow rate of 1 mL/min under the following gradient program: 0-15 min, 5-20% B; 15-16 min, 20-5% B.
HPLC drug loading studies have been performed. […] (Goyanes et al. 3D printing of modified-release aminosalicylate (4-ASA and 5-ASA) tablets. Eur. J. Pharm. Biopharm. 89, 157-162).

The conditions of series [2]: FDM printing; cited from earlier work.

Regarding `Nc1ccc(C(=O)O)c(O)c1` [4-ASA], in series [1], the “drug degradation during the printing process (HPLC)” value was “No degradation”. The “drug degradation while printing” value in series [2] was “degrade”.

Source of the values: patent US11464745B2, “Solid pharmaceutical dosage formulations and processes” (UCL Business PLC, priority 2016, dated 2022).
